Paper PMC5321741, “Arylmethylamino steroids as antiparasitic agents” (Nature Communications, 2017)
Values joined by “and” are separate entries in the source; they are usually repeats but may differ in a detail not shown here. Identical values can stand only once. Counter-ions that a name gives are not always drawn. Like-named read-outs stand apart in the source and are kept apart here. One block for each compound: values may come before it.

How the values were obtained:
[1] = test system: adult Schistosoma mansoni; test: schistosome in vitro culture with inhibitor treatment; type: cell-based
[2] = test system: K-562; test: antiproliferative activity on K-562 cells; type: cell-based; details: Homo sapiens, K562, 72 h
Description: (§1) Compounds were tested for their antiproliferative activity on HUVEC and K-562 cells and for cytotoxicity on HeLa cells using standard protocols. K-562 (DSM ACC 10), HUVEC (ATCC CRL-1730), and HeLa (DSM ACC 57) cells were cultured as described previously. To assay the antiproliferative and cytotoxic effect, procedures were carried out as described before. In brief, for each experiment with K-562 and HeLa ∼10,000 cells were seeded per well of the 96-well microplates. For the cytotoxicity assay, the HeLa cells were preincubated for 48 h without the test substances. Cells were incubated for 72 h at 37 °C in a humidified atmosphere and 5% CO2. Suspension cultures of K-562 in microplates were analysed by an electronic cell analyzer system CASY 1 (SCHÄRFE, Reutlingen, Germany). The monolayer of the HUVEC and HeLa cells were fixed by glutaraldehyde (MERCK) and stained with a 0.05% solution of methylene blue (SERVA). After gently washing, the stain was eluted by 0.2 ml of 0.33 N HCl in the wells. The optical densities were measured at 660 nm in a microplate reader. The calculations of the different values of GI50 and CC50 were performed with the software Magellan (TECAN).

[3] = test system: P. falciparum (strain 3D7); test: 72 h 3H-hypoxanthine incorporation assay, asexual blood stages; type: cell-based, Plasmodium falciparum; details: Plasmodium falciparum
[4] = test system: HUVEC; test: antiproliferative activity on HUVEC cells; type: cell-based; details: Homo sapiens, HUVEC, 72 h
Description: as §1

[5] = test system: P. berghei GFP ANKA malaria strain; test: P. berghei mouse model (Peter's test); type: in vivo, Plasmodium berghei in NMRI mice; details: for % activity (reduction of parasitaemia) / % of control / Parasitized RBC over 100, Average / Parasitized RBC over 100, individual mice M1-M3: day 4
Description: The animal experiments described here were performed at the Swiss Tropical and Public Health Institute (Swiss TPH, Basel, Switzerland), they were approved by the Swiss Cantonal Authorities (‘Kantonales Veterinäramt Basel Stadt') adhering to local and national regulations of laboratory animal welfare in Switzerland. The best compounds were tested in the murine P. berghei model essentially as described. The infection was initiated at day 0 with the P. berghei GFP ANKA malaria strain (donation from AP Waters and CJ Janse, Leiden University). From donor mice (female NMRI mice, 18–20 grams (about 3 weeks) from Charles River Germany) with ∼30% parasitaemia, heparinized blood was taken and diluted in physiological saline to 10^8 parasitized erythrocytes/ml. An aliquot (0.2 ml) of this suspension was injected intravenously into experimental and control groups of mice (female NMRI mice, 18–20 grams (about 3 weeks) from Charles River Germany). Usually, in untreated control mice parasitaemia rose regularly to ∼30% by day 3 post-infection. Control mice died between days 6 and 7 post infection. In the experiments described here, however, control animals (n=5) were killed on day 4 post infection for ethical reasons.
The steroid compounds were prepared at an appropriate concentration as a solution/suspension in Tween 80/alcohol (7:3, Tween 80 and absolute ethanol, respectively), followed by a 10x dilution in water. […] The route of administration was i.p., p.o., s.c. in a volume of 10 ml kg^−1.
The degree of infection (parasitaemia expressed in % of infected erythrocytes) was determined by FACS analysis on day 4 (96 h post infection). The difference of the mean infection rate of the control group (=100%) to the test group was calculated and expressed as a percent reduction. For example, activity determination with a mean of 2% parasitaemia in treated mice and a mean of 40% parasitaemia in the control animals is calculated as follows: (40−2%)/40% × 100=95% activity. The survival time in days was recorded up to 30 days after infection. A compound was considered curative if the animal survived to day 30 after infection with no detectable parasites (confirmed by light microscopy).

[6] = cytotoxicity on HeLa cells; type: cell-based; details: human, HeLa cells
Description: as §1

[7] = test system: P. falciparum NF54; test: IC50 speed assay; type: cell-based, Plasmodium falciparum; details: for IC50: Plasmodium falciparum, mean±s.d., three biological replicates
Description: To assess the rapidity of growth inhibition induced by the steroid compounds, the so-called IC50 speed assay[16] was conducted for compound 1o on P. falciparum NF54 (Fig. 2a,b).

[8] = test system: P. falciparum (strain 3D7); details: read-out: IC50 of mefloquine; cited from earlier work
[9] = test system: hGrx1-roGFP2 in P. falciparum 3D7; test: cytosolic glutathione redox sensor in parasites; type: cell-based, Plasmodium falciparum; details: 100 nM, 24 h
Description: To further study the mechanism of action of the steroid compounds and evaluate the potential involvement of redox stress, compound 1o was tested in cell culture on the chloroquine-sensitive P. falciparum 3D7 strain expressing the cytosolic glutathione redox sensor hGrx1-roGFP2 (Supplementary Note 2). […]
signals at 405/475 nm were calculated and plotted against time and/or concentration of compound 1o or redox active compounds. Data from three independent experiments were […]
100 µM for 4 h and 24 h incubations. Transfection of the Pf3D7 strain with the redox sensor was carried out, and the parasites were cultured as described under constant drug pressure with 5 nM WR99210 (Jacobus Pharmaceuticals, New Jersey, USA).45,46 P. falciparum trophozoites were enriched via magnet separation.47 Parasitemia was counted by using Giemsa-stained blood smears. The IC50 of compound 1o on P. falciparum 3D7 asexual blood stages was verified to be about 5 nM in an additional 72 h [3H] incorporation assay45 directly before the experiment. The effect of compound 1o on P. falciparum was investigated in 4 h and 24 h incubations. For 4 h experiments, trophozoite stage parasites (26-30 h post invasion) of 3D7[hGrx1-roGFP2] (6-8% parasitemia) were magnetically enriched (Miltenyi Biotec, Germany), counted by using the improved Neubauer hemocytometer (Brand GmbH, Germany), and returned to cell culture (at 0.5 x 10^6 trophozoites/µl) for at least 1 h to recover.
1.0 x 10^6 cells in 100 µl cell culture medium were placed into LoBind tubes (Eppendorf) for 4 h incubation experiments. The parasites were treated with compound 1o at 50 x, and 100 x IC and with mefloquine (MQ) as a standard antimalarial drug at 1 µM (IC = 8 nM)45 for 4 h […]
for 15 min at 37 °C. For 24 h experiments, a 5 ml culture (6-8% parasitemia) of ring stage parasites (6-10 h post invasion) was treated with compound 1o at 4 x, 10 x, 20 x IC50 and with 100 nM MQ. Prior to enrichment, cysteines were blocked with 2 mM NEM. For 4 h and 24 h experiments, cells were washed after incubation with pre-warmed Ringer’s solution […]
Hepes, 1 mM NaH2PO4, pH 7.4) and were seeded onto poly-L-lysine-coated µ-slides VI (Ibidi, Martinsried, Germany). A Leica confocal system TCS SP5 inverted microscope equipped with the objective HCX PL APO 63.0x1.30 GLYC 37 °C UV connected to a 37 °C temperature chamber was used. The argon laser power was set to 20%; scanning was performed at 400 Hz frequency and at a 512 × 512 pixel resolution. The smart gain and […]
smart offset were 950 V and -0.9%, respectively. With a sequential scan, we excited the sensor at 405 nm and at 488 nm and detected emissions at 500-550 nm. Laser intensity for both lines was adjusted to match the full dynamic range of the probe to the dynamic range of the detector (405 nm: 12%, 488 nm: 4%). Autofluorescence images were simultaneously taken at ex 405 nm / em 430-450 nm and individually defined together with the background for every image, but no fluorescence signal could be detected. All experiments included non- […]
and 10 mM DTT (2 min incubation), respectively, prior to blocking with NEM. Only parasites showing fluorescent signals at both 405 and 488 nm excitation and an intact host cell were chosen for analysis. Each experiment was carried out three times. At least 10 parasites were analyzed, resulting in at least 30 experimental values per incubation. The Leica LAS AF Lite software for fluorescence analysis was used. The 405/488 nm ratio was calculated. The obtained ratio values were normalized to the control ratio value, which was set to 100. The graphs were plotted using the GraphPad Prism 5 software (San Diego, CA, USA). One way-ANOVA test with 95% confidence intervals with the Dunnett’s Multiple Comparison Test was applied for statistical analysis of significance (*, p < 0.05; **, p < 0.01; ***, p < 0.001). […]
with 1 µM MQ. 24 h incubation (Supplementary Figure 8 panel B) with compound 1o resulted in a higher increase of the fluorescence ratio in a concentration-dependent manner. […]

[10] = NF54, read-out: IC50 24 h, 24 h compound incubation
[11] = NF54, 48 h compound incubation, read-out: IC50 48 h
[12] = NF54, 72 h compound incubation, read-out: IC50 72 h

Compound: Oc1ccccc1CNC1CCCC1 (as salt: perchlorate) [15c]
melting point: 168 to 169 °C

Compound: Oc1ccccc1CNC1CCCCC1 (as salt: perchlorate) [16c]
melting point: 152 to 153 °C

Compound: Oc1ccccc1CNc1ccccc1 (as salt: perchlorate) [19c]
melting point: 183 to 186 °C

Compound: COc1ccc2c(c1)CCC1C2CC[C@@]2(C)C1CC[C@H]2NCc1ccccc1O (some centres unmarked) [1c]
morphological effects (confocal laser scanning microscopy) ([1]; 5 μM, 6–13 days): Aggregate-like degradation products of the gastrodermis occurred within the gut lumen
time to death of worms ([1]; 10 µM): 6 days
time to death of worms ([1]; 20 µM): 2 days
starting concentration with negative influence on worm physiology ([1]; pairing stability, egg production, survival, bright-field microscopy): 1 μM
GI50 [2]: 5900 nM
IC50 ([3]; 3D7, 72 h 3H-hypoxanthine incorporation, asexual blood stages, read-out: Antiplasmodial activity IC50 Pf (3D7)): 7.4 nM
GI50 [4]: 17100 nM
Mouse survival in days, Average ([5]; 3x 10 mg/kg p.o.): 9 days
Mouse survival in days, individual mice M1-M3 ([5]; 3x 10 mg/kg p.o.): 8 days and 11 days and 7 days
% activity (reduction of parasitaemia) ([5]; 3x 10 mg/kg p.o.): 47%
% of control ([5]; 3x 10 mg/kg p.o.): 53%
Parasitized RBC over 100, Average ([5]; 3x 10 mg/kg p.o.): 36
Parasitized RBC over 100, individual mice M1-M3 ([5]; 3x 10 mg/kg p.o.): 28 and 26 and 53
Mouse survival in days, Average ([5]; 3x 10 mg/kg s.c.): 7 days
Mouse survival in days, individual mice M1-M3 ([5]; 3x 10 mg/kg s.c.): 7 days and 6 days and 8 days
% activity (reduction of parasitaemia) ([5]; 3x 10 mg/kg s.c.): < 40%
% of control ([5]; 3x 10 mg/kg s.c.): 83%
Parasitized RBC over 100, Average ([5]; 3x 10 mg/kg s.c.): 56
Parasitized RBC over 100, individual mice M1-M3 ([5]; 3x 10 mg/kg s.c.): 57 and 68 and 42
Mouse survival in days, Average ([5]; 3x 30 mg/kg p.o.): 13 days
Mouse survival in days, individual mice M1-M3 ([5]; 3x 30 mg/kg p.o.): 13 days and 12 days and 14 days
% activity (reduction of parasitaemia) ([5]; 3x 30 mg/kg p.o.): 99.4%
% of control ([5]; 3x 30 mg/kg p.o.): 0.65%
Parasitized RBC over 100, Average ([5]; 3x 30 mg/kg p.o.): 0.44
Parasitized RBC over 100, individual mice M1-M3 ([5]; 3x 30 mg/kg p.o.): 0.53 and 0.31 and 0.48
Mouse survival in days, Average ([5]; 3x 30 mg/kg s.c.): 14 days
Mouse survival in days, individual mice M1-M3 ([5]; 3x 30 mg/kg s.c.): 14 days
% activity (reduction of parasitaemia) ([5]; 3x 30 mg/kg s.c.): 62%
% of control ([5]; 3x 30 mg/kg s.c.): 38%
Parasitized RBC over 100, Average ([5]; 3x 30 mg/kg s.c.): 26
Parasitized RBC over 100, individual mice M1-M3 ([5]; 3x 30 mg/kg s.c.): 21 and 24 and 32
Mouse survival in days, Average ([5]; 3x 100 mg/kg p.o.): 15 days
Mouse survival in days, individual mice M1-M3 ([5]; 3x 100 mg/kg p.o.): 15 days and 17 days and 14 days
% activity (reduction of parasitaemia) ([5]; 3x 100 mg/kg p.o.): 99.7%
% of control ([5]; 3x 100 mg/kg p.o.): 0.30%
Parasitized RBC over 100, Average ([5]; 3x 100 mg/kg p.o.): 0.20
Parasitized RBC over 100, individual mice M1-M3 ([5]; 3x 100 mg/kg p.o.): 0.23 (2×) and 0.14
CC50 at 72 h [6]: > 128000 nM

Compound: Oc1ccccc1CNc1ccc2ccc3cccc4ccc1c2c34 [20c]
IC50 ([3]; 3D7, non-steroid-derived analogs, read-out: IC50 on P. falciparum 3D7 asexual blood stages): 5600 nM
melting point: 160 to 163 °C

Compound: OC(c1cc(C(F)(F)F)nc2c(C(F)(F)F)cccc12)C1CCCCN1 (centres unmarked) [mefloquine, reference compound]
IC50 [8]: 8 nM
change of 405/488 nm fluorescence ratio [9]: 1.5 fold

Next, values leading:

melting point: 136 to 138.5 °C
Compound: Oc1ccccc1CNC1CCCCCCC1 (as salt: perchlorate) [17c]

IC50 [7, 10]: 5.5 ± 0.8 nM
IC50 [7, 11]: 5.7 ± 0.5 nM
IC50 [7, 12]: 4.7 ± 0.3 nM
Compound: C[C@H]1[C@H](OC(=O)CCC(=O)O)O[C@@H]2O[C@@]3(C)CC[C@H]4[C@H](C)CC[C@@H]1[C@@]24OO3 [Artesunate]

speed of action (IC50 shift across 24, 48, 72 h) [7]: slow-acting compound
IC50 [7, 10]: 220 ± 61 nM
IC50 [7, 11]: 30.4 ± 7.6 nM
IC50 [7, 12]: 15.2 ± 1.6 nM
Compound: CCc1nc(N)nc(N)c1-c1ccc(Cl)cc1 [Pyrimethamine]
